# Counter-ions that a name gives are not always drawn. Like-named read-outs stand apart in the source and are kept apart here.
# Assays:
# [1] = system: gastro-intestinal motility; details: cited from earlier work
# [2] = system: dopaminergic receptors D2; details: cited from earlier work
# [3] = system: acetylcholine on the rat ascending colon; experiment: Influence on the acetylcholine activity on the rat ascending colon; set-up: species or system Wistar rat; details: isolated rat ascending colon
# Experimental: (§1) In vitro tests were carried out to evaluate the effect of the compounds of formula I and some of their pharmacologically acceptable salts on physiological peristalsis, on the action of the histamine, serotonine and acetylcholine.
# Finally the effect on the acetylcholine was evaluated on the ascending colon of a rat, according to the method of Gaddum J. H. and Horton E. W. reported in Br. J. Pharmacol. Chemother. 14, 117, 1959.
# The effect of the products on the contracturing action of the acetylcholine was studied on the isolated ascending colon of rat, taken from Wistar rat sacrificed after 24 hours fasting, washed with De Jalon fluid at 27° C. and perfused with the same oxygenated fluid (95% oxygen and 5% carbon dioxide) at the temperature of 27° C. In this case too the cumulative dose-response curves were recorded in the presence of increasing concentrations of the products being studied.
# [4] = system: serotonine on the fornix of the rat stomach; experiment: Influence on the serotonine activity on the fornix of the rat stomach; set-up: species or system Wistar rat
# Experimental: as §1
# The effect on the serotonine was evaluated on the fornix of the stomach of a rat according to the method of Vane J. R. in Br. J. Pharmacol. Cheroother. 12, 344, 1957.
# The action on the serotonine was evaluated on the fornix of the stomach of rat, also taken from Wistar rat sacrificed after 24 hours fasting, following the technique reported by Vane J. R. in Br. J. Pharmacol. Chemoter. 12, 344, 1957, as previously described.
# [5] = system: histamine on guinea-pig ileum; experiment: Influence on the activity of histamine on guinea-pig ileum; details: isolated guinea-pig ileum
# Experimental: In vitro tests were carried out to evaluate the effect of the compounds of formula I and some of their pharmacologically acceptable salts on physiological peristalsis, on the action of the histamine, serotonine and acetylcholine. The effect on the histamine was evaluated on a preparation of guinea-pig ileum according to the method described by the above-mentioned authors. […] The rabbit jejunum was used to evaluate the extent of the spontaneous peristaltic contractions in the presence and in the absence of the derivatives being studied. On the guinea-pig ileum the cumulative dose-response curve to histamine were recorded in the presence of increasing concentrations of the products being examined.
# rabbit jejunum = experiment: Spontaneous peristaltic activity on rabbit jejunum; details: for Emax / EC50 / EC (maximum effect): Oryctolagus cuniculus; for Emax: read-out: maximum effect % (max. increase of extent of the contractions); for EC50: read-out: CE50 (concentration able to produce 50% of the maximum effect); for EC (maximum effect): read-out: concentration required to obtain the maximum effect; for effect on the spontaneous peristalsis in comparison with cisapride: rabbit jejunum, examples 1 and 2 at greater concentrations than the reference, example 6 at identical concentrations
# Experimental: as §1
# The action on physiological peristalsis was evaluated on an isolated rabbit jejunum preparation, according to the method reported by Magnus J. in Pfluegers Arch. Gen. Physiol.
# The rabbit jejunum was used to evaluate the extent of the spontaneous peristaltic contractions in the presence and in the absence of the derivatives being studied.
# intestinal transit = experiment: Intestinal transit of an opaque meal in the mouse (prokinetic action); assay type: in vivo, Swiss albino mice; details: for ED50 / Variation % with respect to the controls: mouse; for ED50: read-out: DE50 (the source's name); for Variation % with respect to the controls: dose five times greater than ED50
# Experimental: (§2) In tables 5, 6, 7 and 8 the significance was determined by means of Student's test on absolute values with respect to the relative controls using 10 animals per group in tests 5, 6 and 7.
# The prokinetic action was evaluated in vivo on Swiss albino mice determining the influence of the products on the intestinal transit of an opaque meal, according to the method described by Macht D. I. and Barba-Gose J. in J. Amer. Pharm. Ass. 20, 558, 1931 and later by Witkin L. B. et al. in J. Pharmacol. Exp. Ther. […]
# The method involved the administration of an opaque meal to the mice after a 24 hour fast, through gastric probe, 15 minutes after the administration of the product.
# After sacrificing the animals 20 minutes after the administration of the opaque meal, the percentage of the length of the intestine travelled by the opaque meal was calculated.
# [6] = Study of acute toxicity (LD50); assay type: in vivo; details: rat, in vivo, iv; Sprague-Dawley rats of both sexes, observation period of 14 days
# Experimental: (§3) The acute toxicity (LD50)of the derivatives described in this invention was evaluated according to the method reported by Lietchfield J. T. and Wilcoxon F. in J. Pharmacol. Exp. Ther. 96, 99, 1949, on Sprague-Dawley rats of both sexes, over an observation period of 14 days from the day of treatment.
# Sprague-Dawley rats = experiment: Study of acute toxicity (LD50); assay type: in vivo; details: Sprague-Dawley rats of both sexes, i.v., observation period of 14 days; 20160 min
# Experimental: as §3
# behaviour = experiment: Irwin's test (effects as regards behaviour); assay type: in vivo; details: rats, 20 mg/Kg i.p.
# From the text: Finally, preliminary studies on the effects as regards behaviour have been performed by means of Irwin's test, according to the method reported by Irwin S. in Gordon Res. Conf. on Medicinal Chem. 1959, 133, 1959, modified in that rats were used instead of mice.
# [7] = system: emesis induced with cisplatin; experiment: Test of vomit from cisplatin in the pigeon (antiemetic activity); assay type: in vivo; details: one hour before cisplatin 7.5 mg/kg; for Acts of vomit (average/anim.) / Animals that vomit % / Latency of 1st act of vomit: * = p<0.05
# Experimental: as §2
# Finally the antiemetic activity was evaluated in the pigeon after induction of emesis with cisplatin, according to the method of Preziosi P. et al. in Eur. J. Pharmacol. 221, 343, 1992.
# gastric dumping = experiment: Test of gastric dumping in the rat; assay type: in vivo; details: for Increase % of the gastric dumping with respect to the controls: 30' before, measured 20' after the coloured meal, * = p<0.05
# Experimental: as §2
# Within the gastro-duodenal tract, the prokinetic activity was evaluated by means of the test of gastric dumping in the rat, according to the method reported by Scarpignato C. in J. Pharmacol. 14, 261, 1983.
# cholinesterase = details: cited from earlier work
# [8] = isolated rabbit jejunum, spontaneous peristaltic contractions
# [9] = 9.8 μg/Kg p.o., 15' before the opaque meal
# [10] = Mus musculus, po, 9.8 μg/Kg p.o., 15' before the opaque meal, * = p<0.05, read-out: variation in % with respect to the controls
compound,measurement,setting,value
CCN(CC)CCNC(=O)c1cc(Cl)c(N)cc1OC [metoclopramide],gastro-intestinal motility / prokinetic activity,[1],stimulates the motility of the upper gastro-intestinal tract
same,activity on the dopaminergic receptors D2,[2],both central and peripheral antagonistic activity on the dopaminergic receptors D2
"CCN(CC)CCN1CN(C)c2ccc(Cl)cc2C1=O [Example 2, 6-Chloro-3-[2-(diethylamino)ethyl]-2,3-dihydro-1-methyl-4(1H)-quinazolinoneoxalate]",active concentration (acetylcholine),[3],100 µM
same,active concentration (serotonine),[4],10 µM
same,effect on the serotonine activity,[4],increase the effect of the serotonine
same,active concentration (histamine),[5],100 µM
same,Emax,rabbit jejunum; [8],73%
same,EC50,rabbit jejunum; isolated rabbit jejunum,300 nM
same,EC (maximum effect),rabbit jejunum; isolated rabbit jejunum,10 µM
same,effect on the spontaneous peristalsis in comparison with cisapride,rabbit jejunum,greater than that of cisapride
same,% of intestine (from pylorus to anus) travelled by the opaque meal,"intestinal transit; 26.5 μg/Kg p.o., 15' before the opaque meal",38.9%
same,change in vivo at 0.0265 mg/kg,"intestinal transit; Mus musculus, po, 26.5 μg/Kg p.o., 15' before the opaque meal, * = p<0.05, read-out: variation in % with respect to the controls",0.5%
same,ED50,"intestinal transit; po, 15' before the opaque meal",0.0265 mg/kg
same,LD50 at 336 h,[6],75 to 80 mg/kg
"CCN(CC)CCN1CN(C)c2ccc(Cl)cc2C1=O [Example 11, 6-Chloro-3-[2-(diethylamino)ethyl]-2,3-dihydro-1-methyl-4(1H)-quinazolinonecitrate]",LD50,Sprague-Dawley rats,80 mg/Kg/i.v.
CCN1CC(NC(=O)c2cc(Cl)c(N)cc2OC)CN1CC [dazopride],gastro-intestinal motility / prokinetic activity,[1],having prokinetic activity
same,activity on the dopaminergic receptors D2,[2],a fair amount of activity on the dopaminergic receptors D2
"CCN(CC)CCCN1CNc2ccc(Cl)cc2C1=O [Example 3, 6-Chloro-3-3-(diethylamino)propyl-2,3-dihydro-4(1H)-quinazolinone oxalate]",effect on the serotonine activity,[4],act as competitive antagonists
same,Emax,rabbit jejunum; [8],25%
same,EC50,rabbit jejunum; isolated rabbit jejunum,10 nM
same,EC (maximum effect),rabbit jejunum; isolated rabbit jejunum,1 µM
same,% of intestine (from pylorus to anus) travelled by the opaque meal,intestinal transit; [9],45.0%
same,change in vivo at 0.0098 mg/kg,intestinal transit; [10],11.1%
same,Variation % with respect to the controls,intestinal transit; * = p<0.05,6.4%
same,variations with respect to the controls in behavioural parameters (Irwin's test),behaviour,no significant variations with respect to the controls
"CCN(CC)CCN1CNc2ccc(Cl)cc2C1=O.O=C(O)C(=O)O [Example 1, 6-Chloro-3-[2-(diethylamino)ethyl]-2,3-dihydro-4(1H)-quinazolinone oxalate]",Variation % of the time of latency with respect to the controls,[7]; 50.0 μg/kg i.m.,-8.3%
same,Acts of vomit (average/anim.),[7]; 50.0 μg/kg i.m.,5.0 average/anim.
same,Animals that vomit %,[7]; 50.0 μg/kg i.m.,100.0%
same,Latency of 1st act of vomit,[7]; 50.0 μg/kg i.m.,77.5 min
same,Variation % of the time of latency with respect to the controls,[7]; 100.0 μg/kg i.m.,+14.7%
same,Acts of vomit (average/anim.),[7]; 100.0 μg/kg i.m.,4.0 average/anim.
same,Animals that vomit %,[7]; 100.0 μg/kg i.m.,100.0%
same,Latency of 1st act of vomit,[7]; 100.0 μg/kg i.m.,97.0 min
same,active concentration (acetylcholine),[3],100 µM
same,active concentration (serotonine),[4],10 µM
same,effect on the serotonine activity,[4]; oxalate,increase the effect of the serotonine
same,active concentration (histamine),[5],100 µM
same,Emax,rabbit jejunum; [8],75%
same,EC50,rabbit jejunum; isolated rabbit jejunum,3000 nM
same,EC (maximum effect),rabbit jejunum; isolated rabbit jejunum,10 µM
same,effect on the spontaneous peristalsis in comparison with cisapride,rabbit jejunum,greater than that of cisapride
same,Increase % of the gastric dumping with respect to the controls,gastric dumping; 12.5 μg/kg,27.6%
same,Increase % of the gastric dumping with respect to the controls,gastric dumping; 50.0 μg/kg,81.0%
same,Increase % of the gastric dumping with respect to the controls,gastric dumping; 100.0 μg/kg,40.0%
same,Increase % of the gastric dumping with respect to the controls,gastric dumping; 200.0 μg/kg,45.7%
same,Increase % of the gastric dumping with respect to the controls,gastric dumping; 400.0 μg/kg,34.0%
same,level of activity on the gastric dumping,"gastric dumping; rat, text statement on table 7",high level of activity on the gastric dumping
same,% of intestine (from pylorus to anus) travelled by the opaque meal,intestinal transit; [9],52.0%
same,change in vivo at 0.0098 mg/kg,intestinal transit; [10],34.4%
same,Variation % with respect to the controls,intestinal transit; * = p<0.05,33.7%
same,ED50,"intestinal transit; po, 15' before the opaque meal",0.0098 mg/kg
same,LD50 at 336 h,[6],100 mg/kg
"COc1cc(N)c(Cl)cc1C(=O)NC1CCN(CCCOc2ccc(F)cc2)CC1OC (centres unmarked) [cisapride, reference compound]",cholinesterase inhibition,cholinesterase,practically no
same,Emax,rabbit jejunum,40%
same,EC50,rabbit jejunum; isolated rabbit jejunum,20 nM
same,ED50,"intestinal transit; po, 15' before the opaque meal",0.019 mg/kg
same,LD50 at 336 h,[6],35 mg/kg
COc1cc(N)c(Cl)cc1C(=O)NC1CCN(Cc2ccccc2)CC1 [clebopride],gastro-intestinal motility / prokinetic activity,[1],having prokinetic activity
same,activity on the dopaminergic receptors D2,[2],a fair amount of activity on the dopaminergic receptors D2

# From patent US5446152A, “Heterocyclic compounds active in gastro-intestinal pathologies” (priority 1993, dated 1995)
